Patent US20060052451A1, “Method” (priority 2002, published 2006)

How the values were obtained:
[1] = test system: HT-29 cells (human colon tumour-derived); test: SRB growth inhibition assay, HT-29 cells; format: cell-based; details: 48 hours exposure
Description: (§1) The effect of perfluorinated compounds on the inhibition of tumour cell growth was assessed iii vitro using three human tumour-derived cell lines. Cancer cell lines were tested using the sulphorhodamine B (SRB) assay (which measures cellular protein and is directly related to cell number), which is utilised by the […] to screen anti-cancer agents.
(§2) HT-29 cells (human colon tumour-derived), MCF7 cells (human breast cancer-derived) and PC3 cells (human prostate cancer-derived) were harvested and diluted (to 5×10^4 cells per ml, 1×10^5 cells per ml and 7.5×10^4 cells per ml respectively) in RPMI 1640 medium containing 5% FBS, 2 mM glutamine and. 50 μg/ml gentamicin. 100 μl of cell suspension per well was added to 96 well plates and allowed to attach overnight. Cells were exposed to test compounds dissolved in DMSO in 100 μl of medium to give final drug concentrations of 0, 0.3, 1, 3, 10, 30, 100, 300, 1000 and 3000 μM (and DMSO at 0.25%). (n=6 for each drug concentration). After 48 hours, cells were fixed in 10% trichloroacetic acid (TCA) at 4° C. for 1-2 hours then washed using water and subsequently air-dried. 100 μl SRB solution (0.4%) in 1% Acetic Acid was added to each well, and plates were incubated at room temperature for 10 minutes. Unbound dye was removed by washing with 1% acetic acid. Plates were air-dried and bound stain was solubilised in 10 mM Tris base and the absorbance read at 520 nm.

[2] = test system: MCF7 cells (human breast cancer-derived); test: SRB growth inhibition assay, MCF7 cells; format: cell-based; details: 48 hours exposure
Description: as §1, §2

[3] = test system: PC3 cells (human prostate cancer-derived); test: SRB growth inhibition assay, PC3 cells; format: cell-based
Description: as §1, §2

[4] = test system: three human tumour-derived cell lines (HT-29, MCF7, PC3); test: SRB growth inhibition, summary over the three human tumour cell lines; format: cell-based; details: Homo sapiens; over HT-29, MCF7 and PC3
Description: as §1, §2

PPAR delta = biological target: T1, PPAR delta (Homo sapiens, UniProt Q03181); test: PPAR delta transactivation assay in COS-1 cells; format: cell-based; set-up: Fold activation of PPAR delta: dose or concentration left out as unconfirmed; details: for Fold activation of PPAR delta: mean±SD n=3; for Inhibition of activation of PPAR delta (by a factor of): transactivation assay
T1 construct: 25 ng of vector DNA carrying PPAR alpha, delta or gamma; expressed in transfected cells; host or cells: COS-1 (African green monkey kidney cells)
T1 sequence (Q03181 1-441): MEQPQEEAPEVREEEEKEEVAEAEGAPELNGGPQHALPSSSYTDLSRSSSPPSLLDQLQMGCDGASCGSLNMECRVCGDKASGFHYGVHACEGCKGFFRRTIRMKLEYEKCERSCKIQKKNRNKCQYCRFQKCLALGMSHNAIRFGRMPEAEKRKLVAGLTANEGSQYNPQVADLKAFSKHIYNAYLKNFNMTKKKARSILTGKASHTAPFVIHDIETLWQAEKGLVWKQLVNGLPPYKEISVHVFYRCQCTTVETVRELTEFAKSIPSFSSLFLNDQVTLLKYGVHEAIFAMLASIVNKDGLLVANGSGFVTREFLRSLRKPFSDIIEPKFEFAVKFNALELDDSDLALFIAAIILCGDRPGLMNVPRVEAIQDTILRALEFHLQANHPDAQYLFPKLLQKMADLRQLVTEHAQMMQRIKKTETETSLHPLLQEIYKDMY

[5] = 7-day oral gavage study, metabolic parameters, body weight and food consumption in CR SD rats; format: in vivo, rat; details: for Cholesterol (plasma) / Glucose (plasma) / Insulin (plasma) / Triglycerides (plasma): n=5; for Weight loss: 7 days; for Plasma glucose, % of control values: dose not stated
Description: Two groups (n=5) of CR SD rats (approximately 300 g) were treated with 2 dose levels of perfluorinated compounds (15 and 25 mg/kg/day body weight). Animals were administered test substances, dissolved in corn oil, by oral gavage, daily for 7 days. One group of 20 CR SD rays was also treated with vehicle (corn oil) alone. Body weight and food consumption were monitored daily.
Twenty-four hours after the last dose the animals were killed by an increasing concentration of carbon dioxide. Blood was collected by cardiac puncture and plasma was prepared and stored at −70° C. until analysed.
Plasma was analysed for triglycerides, cholesterol, and glucose, using kits purchased from Sigma. Concentrations of plasma insulin were determined using a commercially available enzyme-immunoassay-based kit from Amersham Biosciences. All assays were carried out as specified by the manufacturer.

[6] = biological target: T2, human PPAR-alpha ligand binding domain (Homo sapiens, UniProt Q07869); test: PPAR alpha ligand binding (displacement of DAUDA); details: for Kd: PPAR Receptor Binding Kd Alpha (apparent Kd), DAUDA displacement
T2 sequence (Q07869 179-468): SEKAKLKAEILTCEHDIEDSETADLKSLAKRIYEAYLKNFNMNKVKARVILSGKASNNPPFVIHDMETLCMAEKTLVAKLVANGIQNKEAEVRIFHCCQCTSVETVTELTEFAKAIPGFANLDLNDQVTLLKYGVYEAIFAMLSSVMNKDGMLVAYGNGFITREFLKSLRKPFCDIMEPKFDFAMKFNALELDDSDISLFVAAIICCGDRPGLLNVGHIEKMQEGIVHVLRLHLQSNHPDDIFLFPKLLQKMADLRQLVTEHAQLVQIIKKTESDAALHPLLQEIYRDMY

[7] = biological target: T3, human PPAR-gamma ligand binding domain (Homo sapiens, UniProt P37231); test: PPAR gamma ligand binding (displacement of cis-parinaric acid)
T3 sequence (P37231 202-505): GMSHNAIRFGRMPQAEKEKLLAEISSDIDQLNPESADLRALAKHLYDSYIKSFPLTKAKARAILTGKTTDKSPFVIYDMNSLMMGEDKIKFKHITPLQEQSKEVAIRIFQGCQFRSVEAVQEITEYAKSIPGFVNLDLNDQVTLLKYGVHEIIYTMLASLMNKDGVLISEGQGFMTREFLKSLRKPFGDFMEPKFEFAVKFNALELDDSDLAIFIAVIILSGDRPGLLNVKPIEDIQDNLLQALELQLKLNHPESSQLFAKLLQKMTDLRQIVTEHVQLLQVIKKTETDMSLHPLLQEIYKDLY

[8] = Plasma levels of PFOA after 11 days oral dosing in SD rats (LC/MS/MS); format: in vivo, rat; details: 25 mg/kg oral daily for 11 days, 24 hours after final administration
Description: The study consisted of one control group of 8 male CD Sprague Dawley rats (8-10-weeks old; obtained from Harlan, UK) and 4 test groups that contained 4 rats. Animals received powdered RM1 diet ad libitum for the duration of the study. […] All chemicals were dissolved in Mazola corn oil (at 2.5 mg/ml) and test compounds were administered at 10 ml/kg bodyweight. Control animal received Mazola corn oil only. All animals were sacrificed after 11 days. Animals were killed by exposure to rising concentrations of CO2, and blood was harvested into lithium/heparin tubes for plasma.
Rat plasma samples were denatured by adding acetonitrile, and the amount of perfluorooctanoic acid (PFOA) present was determined by LC/MS/MS.

[9] = Homo sapiens, PC-3, 48 hours exposure
[10] = 15 mg/kg/day oral gavage 7 days
[11] = 25 mg/kg/day oral gavage 7 days
[12] = 15 and 25 mg/kg/day, versus control

Row | Compound | IC50 ([1]; Homo sapiens, HT-29, 48 h) [µM] | IC50 ([2]; Homo sapiens, MCF7, 48 h) [µM] | IC50 [3, 9] [µM] | IC50 [4] [µM] | Fold activation of PPAR delta (PPAR delta) [fold] | Inhibition of activation of PPAR delta (by a factor of) (PPAR delta) | Plasma insulin, % of control values ([5]; 15 mg/kg) [%] | Cholesterol (plasma) [5, 10] [mmol/L] | Glucose (plasma) [5, 10] [mmol/L] | Insulin (plasma) [5, 10] [ng/mL] | Triglycerides (plasma) [5, 10] [mmol/L] | Cholesterol (plasma) [5, 11] [mmol/L] | Glucose (plasma) [5, 11] [mmol/L] | Insulin (plasma) [5, 11] [ng/mL] | Triglycerides (plasma) [5, 11] [mmol/L] | Kd [6] [µM] | Plasma insulin, % of control values ([5]; 25 mg/kg) [%] | Weight loss ([5]; 15 mg/kg) [%] | Plasma cholesterol, % of control values ([5]; 25 mg/kg) [%] | Plasma triglycerides, % of control values ([5]; 25 mg/kg) [%] | other results
1 | O=C(O)C(F)(F)C(F)(F)C(F)(F)C(F)(F)C(F)(F)C(F)(F)C(=O)O [PFSA, Perfluorosuberic acid (C8)] | > 3000 | > 3000 | > 3000 | ~3000 | 0.62 ± 0.31 | 1.6 | 28.7 | 1.76 ± 0.15 | 16.41 ± 2.09 | 52.96 ± 26.55 | 0.95 ± 0.42 | 1.92 ± 0.36 | 15.9 ± 1.43 | 109 ± 103.2 | 1.22 ± 0.56 | 44 | – | – | – | – | Reduction in binding affinity for PPAR alpha compared to PFOA [6]: 7 fold; Kd [7]: 13 µM; Reduction in binding affinity for PPAR gamma compared to PFOA [7]: ~40 fold
2 | CCOC(=O)C(F)(F)C(F)(F)C(F)(F)C(F)(F)C(F)(F)C(F)(F)C(F)(F)F [EPOA, Ethylperfluorooctanoate] | – | – | – | – | – | – | – | – | – | – | – | – | – | – | – | – | – | – | – | – | Plasma concentration of PFOA (free acid) [8]: equimolar concentrations of PFOA
3 | FC(F)(F)C(F)(F)C(F)(F)C(F)(F)C(F)(F)C(F)(F)C(F)(F)C(F)(F)F [PFO, Perfluorooctane] | – | – | – | – | – | – | – | 1.99 ± 0.46 | 18.41 ± 1.41 | 99.58 ± 126.1 | 1.03 ± 0.35 | 1.70 ± 0.11 | 17.13 ± 2.37 | 61.81 ± 45.81 | 2.09 ± 2.33 | – | 33.5 | – | – | – | Plasma glucose raised by ([5]; 25 mg/kg): 3%
4 | CCCCC[C@H](O)/C=C/[C@@H]1[C@H]2C/C(=C/CCCC(=O)O)C[C@H]2C[C@H]1O [carbaprostacyclin, reference compound] | – | – | – | – | 2.17 ± 0.42 | – | – | – | – | – | – | – | – | – | – | – | – | – | – | – | –
5 | O=C(O)C(F)(F)C(F)(F)C(F)(F)C(F)(F)C(F)(F)C(F)(F)C(F)(F)F [PFOA, Perfluorooctanoic acid] | – | – | – | – | – | 4 | 2.98 | 1.01 ± 0.086 | 10.30 ± 1.23 | 5.51 ± 8.88 | 0.37 ± 0.04 | 0.98 ± 0.35 | 10.01 ± 3.90 | 56.76 ± 46.5 | 0.3 ± 0.13 | 6 | 30.74 | 9.4 | 49.2 | 16.8 | IC50 [1]: 398 µM; IC50 [2]: 244 µM; IC50 ([3]; 48 hours exposure): 215 µM; Bodyweight lost ([5]; 25 mg/kg, after day 6, terminated early): 11.7%; Food consumption [5, 12]: dose-related, decreases in food consumption; Plasma glucose, % of control values [5]: 60%
6 | N.O=C(O)C(F)(F)C(F)(F)C(F)(F)C(F)(F)C(F)(F)C(F)(F)C(F)(F)F [APFO, Ammonium perfluorooctanoate] | 293 | 211 | 215 | 200 to 600 | – | – | 13.5 | 1.00 ± 0.36 | 13.12 ± 0.74 | 25.02 ± 20.27 | 0.25 ± 0.07 | – | 11.99 ± 1.87 | 15.29 ± 9.72 | 0.34 ± 0.09 | 8 | 8.3 | 1 | 56.2 | 19.1 | Food consumption ([5]; 15 mg/kg): did not decrease further after day 6; Weight loss ([5]; 25 mg/kg (higher dose)): 11%; Bodyweight change ([5]; 15 and 25 mg/kg/day, continued till end of treatment): lost bodyweight after day 3; Food consumption [5, 12]: dose-related, decreases in food consumption; Plasma glucose, % of control values [5]: 72.6%
